Results published in patent publication US11174267B2, “Spiroindolinones and therapeutic uses thereof” (The Regents of the University of California, priority 2015, dated 2021).
Like-named read-outs stand apart in the source and are kept apart here.

What was measured:
[1] = system: C. albicans; assay: Drug susceptibility assay in combination with azole antifungals and other Cdr1/Mdr1 substrates; format: cell-based, Candida albicans; conditions: for EC50 / MIC50: Candida albicans
Method: Drug susceptibility assay. All the assays were carried out with SC medium in 24-well plates. […] Plates were incubated at 30° C. for 15 h. Cell growth was measured by reading absorbance at 600 nm. […] EC50 values were calculated by nonlinear regression curve fit of log (concentration) versus the % cell growth.
Compound 1 was also studied to determine if it can synergize with all azole antifungals and non-azole drugs that are known Cdr1 substrates. […] The effective concentrations of the spiroindolinone used are at nM levels, much lower than that of substrates (azoles for example), therefore ruling out competitive inhibition as the mechanism. […] With further study it is possible to determine drug-target interaction sites on Cdr1.

[2] = system: susceptible strain (HLY4123) of C. albicans; assay: Dose-response with fluconazole (0.25 μg/mL) against susceptible strain; format: cell-based, Candida albicans; conditions: Candida albicans, with fluconazole 0.25 μg/mL; strain HLY4123
Method: (§1) C. albicans was grown in SC medium overnight and then diluted to an effective OD600 of 0.0625. Serial ten-fold dilutions of the test compounds (0.15-1500 μM) were prepared in DMSO in 1.5 mL Eppendorf tubes. […] The plates were incubated in a rotary shaker/incubator at 30° C. for 16 h. The contents of each well was resuspended with a micropipettor and a 20 μL aliquot was added to a polystyrene cuvette and diluted with 680 μL of deionized water. The suspension was triturated again immediately before measuring the absorbance at 600 nm (OD600) for cell densities. EC50 values were determined by fitting to the Hill equation using the Excel-based tool ED50PLUS v1.0 (Mario H. Vargas) or using Mathematica. Similar procedures were used for Candida glabrata and Cryptococcus neoformans.

[3] = system: Resistant Candida albicans (clinical isolate-45); assay: EC50 in combination with fluconazole, resistant C. albicans; format: cell-based
[4] = system: Candida glabrata; assay: EC50 in combination with fluconazole, Candida glabrata; format: cell-based; conditions: [fluconazole] = 128 μg/mL
Excerpt: (§2) Strains and growth condition. The wild-type Candida albicans strains used were SC5314 and CaSS1. Cdr1 heterozygous were from Merck Sharp & Dohme Corp. Double Barcoded (DBC) library of heterozygous Candida albicans mutants (version 2013A). Cdr1 deficient mutant was obtained by counterselection of the GRACE library strain on 5-Fluoroorotic Acid (5-FOA) containing plate. Clinical isolated resistant C. albicans were from Dr. David Rogers. Cryptococcus neoformans var. grubii H99 (ATCC 208821) and Candida glabrata BG2, a fluconazole-resistant clinical isolate, were used. Yeast strains were cultured at 30° C. in synthetic complete (SC) medium containing 2% glucose.
as §1
(§3) Because fungal drug-efflux ABC transporters are conserved, Cdr1 inhibitors that target the conserved regions of the pumps are expected to inhibit the drug efflux pumps in all fungi including C. albicans. […] Therefore, those spiroindolinones are candidates for combination antifungal therapy with azoles against invasive infections of not only C. albicans, but also other pathogenic fungi.

[5] = system: Cryptococcus neoformans; assay: EC50 in combination with fluconazole, Cryptococcus neoformans; format: cell-based; conditions: [fluconazole] = 4 μg/mL
Excerpt: as §2, §1, §3

[6] = MDR1, with clotrimazole 0.221 μg/mL
[7] = MDR1, with fluconazole 0.500 μg/mL
[8] = MDR1, with itraconazole 0.004 μg/mL
[9] = MDR1, with ketoconazole 0.289 μg/mL
[10] = MDR1, with miconazole 0.031 μg/mL
[11] = MDR1, with vorizonazole 0.006 μg/mL

SMILES	EC50 [1, 6]	EC50 [1, 7]	EC50 [1, 8]	EC50 [1, 9]	EC50 [1, 10]	EC50 [1, 11]	MIC50 ([1]; with clotrimazole 0.221 μg/mL)	MIC50 ([1]; with fluconazole 0.500 μg/mL)	MIC50 ([1]; with itraconazole 0.004 μg/mL)	MIC50 ([1]; with ketoconazole 0.289 μg/mL)	MIC50 ([1]; with miconazole 0.031 μg/mL)	MIC50 ([1]; with vorizonazole 0.006 μg/mL)	EC50 [2]	EC50 [4]	EC50 [5]	further results
Cc1c(Cl)ccc2c1NC(=O)[C@]21N[C@H](Cc2ccccc2)[C@@H]2C(=O)N(c3ccc(F)cc3)C(=O)[C@@H]21 (racemic) [Compound 1, (±)-(3R,3′R,3a′R,6a'S)-3′-benzyl-6-chloro-5′-(4-fluorophenyl)-7-methyl-2′,3′,3a′,6a′-tetrahydro-4′H-spiro[indoline-3,1′-pyrrolo[3,4-c]pyrrole]-2,4′,6′(5′H)-trione]	500 nM	100 nM	700 nM	830 nM	990 nM	310 nM	3.7 µM	1.3 µM	1.7 µM	7.4 µM	3.6 µM	4.5 µM	11 nM	640 nM	> 30000 nM	susceptibility of C. albicans to azole antifungals ([1]; all azole antifungals tested): increase the susceptibility; growth inhibitory activity of cycloheximide ([1]; cycloheximide, substrate of the Cdr1 efflux pump): enhance the growth inhibitory activity; growth inhibitory activity of thiolutin ([1]; thiolutin, substrate of Mdr1): did not enhance the growth inhibitory activity; EC50 ([3]; C. albicans clinical isolate-45; [fluconazole] = 64 μg/mL; read-out: EC50 Resistant Candida albicans): 440 nM
Cc1c(Cl)ccc2c1NC(=O)[C@@]21[C@H]2C(=O)N(c3ccccc3)C(=O)[C@H]2[C@H]2CN(C(=O)OCc3ccccc3)CCN21 (racemic) [Compound 25, (±)-benzyl (3R,3a′R,3b'S,9a'S)-6-chloro-7-methyl-1′,2,3′-trioxo-2′-phenyl-2′,3′,3a′,3b′,4′,6′,7′,9a′-octahydrospiro[indoline-3,9′-pyrrolo[3′,4′:3,4]pyrrolo[1,2-a]pyrazine]-5′(1′H)-carboxylate]	150 nM	11 nM	190 nM	14 nM	240 nM	62 nM	4.1 µM	0.84 µM	2.5 µM	2.3 µM	25 µM	1.9 µM	0.3 nM	> 30000 nM	192 nM	EC50 ([1]; MDR1, with isavuconazole 0.0006 μg/mL): 4 nM; MIC50 ([1]; with isavuconazole 0.0006 μg/mL): 0.11 µM; EC50 ([3]; read-out: EC50 Resistant Candida albicans; C. albicans clinical isolate-45; [fluconazole] = 64 μg/mL): 400 nM
